Patent publication US11806342B2, “Diiodohydroxyquinoline for the treatment of clostridium difficile infection” (Purdue Research Foundation, priority 2019, dated 2023)
≈ marks a conversion by molar mass, not a printed value. Like-named read-outs stand apart in the source and are kept apart here.

How the values were obtained:
[1] = system: 38 tested C. difficile strains; assay: MIC and MBC over the panel of clinical isolates (MIC50, MIC90, range); type: cell-based, Clostridium difficile; details: for MIC90 / MIC50: Clostridioides difficile; for MIC range: over the 38 tested C. difficile strains
Protocol: MIC50 and MIC90 are the minimum concentration of each agent that inhibited growth of 50% and 90% of the tested isolates, respectively. The minimum bactericidal concentration (MBC) of these drugs was tested by plating 5 μL from wells with no growth onto BHIS agar plates. The MBC was categorized as the lowest concentration that reduced bacterial growth by 99.9% MIC50 and MIC90 are the minimum concentration of each agent that inhibited the growth of 50% and 90% of the tested isolates, respectively. The minimum bactericidal concentration (MBC) of these drugs was tested by plating 5 μL from wells with no growth onto BHIS agar plates. The MBC was categorized as the lowest concentration that reduced bacterial growth by 99.9% [29-31].

[2] = system: species of Bacteroides and Bifidobacterium; assay: MIC against normal gut microflora; type: cell-based; details: species of Bacteroides and Bifidobacterium tested; for DIHQ except B. longum, B. adolescentis, B. angulatum; read-out: MIC (growth inhibitory concentration)
Protocol: (§1) In vitro antimicrobial evaluation of diiodohydroxyquinoline against normal microflora. The broth microdilution assay was utilized to determine the MICs of DIHQ and control antibiotics against commensal organisms that compose he human gut microflora, as described elsewhere. A bacterial solution equivalent to 0.5 McFarland standard was prepared and diluted in BHIS broth (for Bifidobacterium and Bacteroides) or in MRS broth (for Lactobacillus) to achieve a bacterial concentration of about 5×10^5 CFU/mL. Then, drugs were added and serially diluted along the plates.

Bifidobacterium longum = assay: MIC against normal gut microflora; type: cell-based; details: both strains
Protocol: as §1

[3] = system: C. difficile clinical isolates; assay: Checkerboard assay, summary over 9 tested strains; type: cell-based, Clostridium difficile
Protocol: Interactions between diiodohydroxyquinoline and the anticlostridial drugs (metronidazole and vancomycin) against Clostridium difficile clinical isolates. […] The fractional inhibitory concentration index (ΣFIC) was calculated for each interaction. Interactions where the ΣFIC index was ≤0.5 were categorized as synergistic (SYN).

[4] = system: 2 clinical C. difficile strains; assay: Initial screening of antiparasitic drugs, both strains; type: cell-based, Clostridium difficile; details: Clostridioides difficile, both tested C. difficile strains, read-out: MIC (growth inhibitory concentration)
Protocol: C. difficile strains were grown anaerobically on brain heart infusion supplemented (BHIS) agar plates at 37° C. for 48 hours. Afterwards, a bacterial solution equivalent to 0.5 McFarland standard was prepared and diluted in (BHIS) broth to achieve a bacterial concentration of about 5×10^5 CFU/mL. Drugs were added and serially diluted along the plates. Plates were then, incubated anaerobically at 37° C. for 48 hours. MICs reported in Table (1) are the minimum concentrations of the drugs that could completely suppress the visual growth of bacteria.

[5] = system: C. difficile ATCC BAA-1870; assay: Initial screening of antiparasitic drugs, broth microdilution MIC; type: cell-based, Clostridium difficile; details: Clostridioides difficile
[6] = system: Lactobacillus and Bacteroides strains; assay: MIC against normal gut microflora; type: cell-based; details: Phocaeicola dorei; Lactobacillus and Bacteroides strains tested, with the exception of B. dorei HM-719; read-out: MIC (growth inhibitory concentration)
Protocol: as §1

Bifidobacterium strains = assay: MIC against normal gut microflora; type: cell-based; details: Bifidobacterium strains tested
Protocol: as §1

[7] = concentration inhibiting growth of 90% of the tested isolates, read-out: MIC90
[8] = concentration inhibiting growth of 50% of the tested isolates, read-out: MIC50

Q: What does the source list for Cc1ncc([N+](=O)[O-])n1CCO [Metronidazole, metronidazole]?
A: MIC90 [1, 7]: 0.25 µg/mL (≈ 1.46 µM); MIC range [1]: 0.06 to 0.5 µg/mL; MIC [2]: ≤ 2 µg/mL

Q: Which results are given for Oc1c(I)cc(I)c2cccnc12 [DIHQ, 5,7-diiodoquinolin-8-ol]?
A: MIC50 [1, 8]: 0.5 µg/mL (≈ 1.26 µM); MIC90 [1, 7]: 2 µg/mL (≈ 5.04 µM); MBC values relative to the corresponding MIC values ([1]; all isolates): equal to or two-fold higher; MIC range [1]: 0.06 to 2 µg/mL; MIC [2]: > 128 µg/mL; MIC (Bifidobacterium longum): 64 to 128 µg/mL (≈ 161 to 322 µM); tested strains with a synergistic relationship ([3]; DIHQ combined with metronidazole): 7 out of 9; tested strains with a synergistic interaction ([3]; DIHQ combined with vancomycin): 5 out of 9; MIC [4]: 0.5 to 1 µg/mL (≈ 1.26 to 2.52 µM); MIC ([5]; initial screening, C. difficile ATCC BAA 1870, read-out: MIC): 1 µg/mL (≈ 2.52 µM)

Q: With CCc1c(Cl)c(O)c(Cl)c(O)c1C(=O)O[C@H]1[C@H](O)[C@H](OC)[C@H](OC/C2=C\C=C\C[C@H](O)/C(C)=C/[C@H](CC)[C@@H](O[C@@H]3OC(C)(C)[C@@H](OC(=O)C(C)C)[C@H](O)[C@@H]3O)/C(C)=C/C(C)=C/C[C@@H]([C@@H](C)O)OC2=O)O[C@@H]1C [Fidaxomicin, fidaxomicin] as the compound, how does the MIC50 [1, 8] read?
A: 0.015 µg/mL (≈ 0.0142 µM)

Q: And the MIC90 [1, 7]?
A: 0.06 µg/mL (≈ 0.0567 µM)

Q: And the MIC [6]?
A: > 128 µg/mL

Q: Which MIC50 [1] does the source give for CN[C@H](CC(C)C)C(=O)N[C@H]1C(=O)N[C@@H](CC(N)=O)C(=O)N[C@H]2C(=O)N[C@H]3C(=O)N[C@H](C(=O)N[C@H](C(=O)O)c4cc(O)cc(O)c4-c4cc3ccc4O)[C@H](O)c3ccc(c(Cl)c3)Oc3cc2cc(c3O[C@@H]2O[C@H](CO)[C@@H](O)[C@H](O)[C@H]2O[C@H]2C[C@](C)(N)[C@H](O)[C@H](C)O2)Oc2ccc(cc2Cl)[C@H]1O [Vancomycin, vancomycin] here?
A: 0.5 µg/mL (≈ 0.345 µM)

Q: What about the MIC90 [1] of the same compound?
A: 1 µg/mL (≈ 0.69 µM)

Q: And the MIC (Bifidobacterium strains)?
A: ≤ 1 µg/mL

Q: And the MIC [5]?
A: 1 µg/mL (≈ 0.69 µM)
